The values that follow come from patent US20230159436A1, “APPLICATIONS OF AMIDE ANALOGS OF TRITERPENES IN CURES OF CANCER AND OTHER DISEASES” (Pacific Arrow Limited, priority 2021, published 2023).

One series deals with ovarian cancer cells. The series is described as follows: Inhibiting growth of ovarian cancer cells. The class given is cell-based.
In series [1] the test system is U2OS, H460, HTB-9, ES2, HCT116, Capan, OVCAR3, DU145, SK-Mel-5, KB, A498, MCF-7, HepG2, T98G, K562, HeLa. Kind of series: MTT Cytotoxic Assay of reaction products and isolated compounds. The class given is cell-based. The text has this: The peaks, fractions and compounds are selected according to the activities of times studies and the changes of peaks. Selecting the HPLC fractions for isolation is according to the cytotoxic activity of the reaction product obtained at a specific time. The compounds having strong to weak activities are selected and isolated. Selecting the HPLC fractions for isolation may be according to the cytotoxic activity of times studies and the change of peaks. The anti cancer activities are the MTT studies of bone (U2OS), lung (H460), bladder (HTB-9), ovary (ES2), colon (HCT116), pancreas (Capan), ovary (OVCAR3), prostate (DU145), skin (SK-Mel-5), mouth (KB), kidney (A498), breast (MCF-7), liver (HepG2), brain (T98G), luekemia (K562), cervix (HeLa).
Esterification, amidation, amination, or sulfonamidation of compound (A), (B), (C), (D1), (D2), (E), (F), (G), (H1), (H2), E4A, E4A2Y, E4D, E4D1, (P1), P(2), terpene, isoprene, triterpenes, hydroxylated triterpenes, with acyl halide, wherein the halide comprise chloride, bromide, fluoride and iodide, wherein the acyl halide comprise acyl chloride, wherein acyl chloride comprise tigloyl chloride, angeloyl chloride, acetyl chloride, crotonoyl chloride, 3,3-dimethylartyloyl chloride, senecioyl chloride, cinnamoyl chloride, pentenoyl chloride, hexanoyl chloride, benzoyl chloride, ethylbutyryl chloride, propionyl chloride, 2-propenoyl chloride, isobutyryl chloride, butyryl chloride, (2E)-2-pentenoyl chloride, 4-Pentenoyl chloride, 5-hexenoyl chloride, heptanoyl chloride, octanoyl chloride, nonanoyl chloride, decanoyl chloride, Lauroyl chloride, myristoyl chloride, oleoyl chloride. The compounds vary in composition when the time or temperature of the reaction is changed. The peaks, fractions and compounds are selected according to the activities of times studies and the changes of peaks. The compounds having strong to weak activities are selected and isolated. The anti cancer activities (Cytotoxic Assay) are the MTT studies of bone (U2OS), lung (H460), bladder (HTB-9), ovary (ES2), colon (HCT116), pancreas (Capan), ovary (OVCAR3), prostate (DU145), skin (SK-Mel-5), mouth (KB), kidney (A498), breast (MCF-7), liver (HepG2), brain (T98G), luekemia (K562), cervix (HeLa). The active esterification, amidation, amination, or sulfonamidation products are purified with HPLC. The reaction product of mixtures and individual compounds are tested with MTT Cytotoxic Assay. Details of method are in Experiment 3 of the present application. A second esterification of compound can be selected from the above experiment results to produce new active compounds. A partial esterification compound is selected from the above experiments to perform a second or repeated with a third esterification with different acyl chloride in order to produce new active compounds with the experiments in the present application. The active compounds of this invention are triterpenes in form of amine, sulfonamides, amide, and urea analogs, providing extremely stable activity in solution. They prolong the activities and duration of drug in a subject.
Cells. HTB-9 (bladder), HeLa-S3 (cervix), DU145 (prostate), H460 (lung), MCF-7 (breast), K562 (leukemia), HCT116 (colon), HepG2 (liver), U2OS (bone), T98G (brain), SK-MEL-5 (Skin) and OVCAR 3, ES2 (ovary), Pancreas (Capan), Mouth (KB), Kidney (A498).
MTT Assay. The procedure for MTT assay followed the method described by Carmichael et al. (1987) with modifications. The cells were seeded into a 96-well plate at for 24 hours before drug-treatment. The cells were then exposed to the drugs for 48, 72, or 96 hours. After the drug-treatment, MTT (0.5 mg/mL) was added to cultures and incubated for an hour. The formazan (product of the reduction of tetrazolium by viable cells) formed and was dissolved with DMSO and the O.D. at 490 nm, and was measured by an ELISA reader. The MTT level of the cells before drug-treatment was also measured (T0). […]

The test system of another series is red blood cells (RBC). Kind of series: Haemolytic assay. It is filed as cell-based, human. The procedure:
Erythrocytes (RBC) were isolated from human blood (EDTA whole blood, collected randomly). 50 ul of the 10% RBC suspension (in PBS) was added to 2 ml of sample solutions (concentration range from 0.1 ug/ml to 400 ug/ml) in PBS. The mixture was vortexed briefly and sat for 60 min at room temperature. The mixture was spun at 3K for 10 min and the relative amounts of lysed hemoglobin in the supernatant were measured at 540 nm. The synthetic compounds of present application were tested with this method.

Series [2] deals with cancer growth, cancer invasion, cells invasion or cancer cell invasion. The series is described as follows: Inhibition of cancer growth and invasion (anti-cancer activity). It is filed as cell-based. An excerpt:
The program is based on the purification methods and biological assays including the MTT assay as described in International Application No. PCT/US05/31900, filed Sep. 7, 2005, U.S. Ser. No. 11/289,142, filed Nov. 28, 2005, and U.S. Ser. No. 11/131,551, filed May 17, 2005, and PCT/US2008/002086, 1188-ALA-PCT, filed Feb. 15, 2008, Ser. No. 12/344,682, 1020-B1-US, filed Dec. 29, 2008, US009499577B2, filed Jun. 24, 2014. The details of Analysis of gene expression of ES2 cells after Y-treatment by Microarray, Data Analysis Methods and Western blot in PCT/US2008/002086, 1188-ALA-PCT, filed Feb. 15, 2008, and the cell invasion experiments methods in International Application PCT/US2010/0042240, filed Jul. 16, 2010.

In brackets after ≈: the same amount, converted by molar mass. Where two headings read alike, the source gives them in different places.

Consider `C/C=C(/C)C(=O)O[C@@H]1[C@H](C)CC2C3=CCC4[C@@]5(C)CC[C@H](O[C@@H]6OC(C(=O)O)[C@@H](O)C(O[C@@H]7O[C@@H](CO)C(O)C7O)C6O[C@@H]6OC(CO)[C@H](O)C(O)C6O)C(C)(C)C5CC[C@@]4(C)[C@]3(C)[C@@H](O)[C@@H](O)[C@@]2(CO)[C@H]1OC(=O)/C(C)=C\C` (stereo partly drawn) [Compound Y, 3-O-[β-D-galactopyranosyl (1→2)]-α-L-arabinofuranosy (1→3)-β-D-glucuronopyranosyl-21,22-O-diangeloyl-3β,15α,16α,21β,22α,28-hexahydroxyolean-12-ene], for which the IC50 with ovarian cancer cells is about 1.5 µg/mL (≈ 1.33 µM).

For `CC1(C)CC2C3=CCC4[C@@]5(C)CC[C@H](O)[C@](C)(CO)C5CC[C@@]4(C)[C@]3(C)C[C@@H](O)[C@@]2(CO)[C@@H](O)[C@@H]1O` (stereo partly drawn) [E4A], the MTT cytotoxic activity result in series [1] (FIG. 8, FIG. 10) is reported as “no activity”. Also, the hemolytic activity result with red blood cells (RBC) is reported as “no hemolytic activity”. For the same compound, in series [2], the anti-cancer activity result is listed as “no anti-cancer activity” and the “inhibiting cancer growth, cancer invasion, cells invasion or cancer cell invasion” value (from here on “inhibiting cancer growth”) is “no effect”.

Regarding `CC1(C)CC2C3=CCC4C5(C)CCC(N)C(C)(CN)C5CCC4(C)C3(C)CC(N)C2(CN)C(N)C1N` (stereo not drawn) [E4D1], the Cytotoxicity activity result was “none and moderate and NONE” in series [1]; “none” in series [1] (listed as E1E4D1); “none” in series [1] (listed as I 1E4D1). The hemolytic activity entry with red blood cells (RBC) is “no hemolytic activity”. In addition, in series [2], the anti-cancer activity entry is recorded as “no anti-cancer activity”. In series [2], the “inhibiting cancer growth” value is “no effect”.

As to `CC1(C)CC2C3=CCC4C5(C)CCC(O)C(C)(CN)C5CCC4(C)C3(C)CC(O)C2(CN)C(O)C1O` (stereo not drawn) [E4D], the Cytotoxicity activity result in series [1] was “none and None”. The hemolytic activity result with red blood cells (RBC) is listed as “no hemolytic activity”. In series [2], the anti-cancer activity result was “no anti-cancer activity” and the “inhibiting cancer growth” value was “no effect”.
